The results in this text go back to patent publication US10676429B2, “Sulfamoyl-arylamides and the use thereof as medicaments for the treatment of hepatitis B” (priority 2012, dated 2020).

The subject of data set [1] is HBV. Description: Anti-HBV activity in stable transfected HepG2.2.15 cell line (HBV DNA from secreted virions, realtime PCR). Conditions: HepG2.2.15 cells, 6 days of treatment, secreted virion HBV DNA, read-out: HepG2 2.15 EC50. The format is cell-based.
Data set [2] concerns HBV. Description: Anti-HBV activity in HepG2.117 cell line (Tet-off, intracellular HBV DNA, realtime PCR). The note with it: HepG2.117 cells, 3 days of treatment, intracellular HBV DNA, read-out: HepG2 117 EC50. It is filed as cell-based.
The next data set concerns HepG2 cells. Description: Cytotoxicity in HepG2 cells, 4 days, Resazurin assay. The note with it: read-out: HepG2 4 days CC50; HepG2 cells, 4 days, Resazurin.
Test in data set [3]: as above
The note with it: human, HepG2 cells.

Where [4] appears, read: Hepatitis B virus, HepG2.2.15, 144 h.
The mark [5] stands for this setting: Hepatitis B virus, HepG2.117, 72 h.

For orientation: EC50 means the concentration needed to bring the measured effect to its halfway point. The term CC50 denotes the concentration that lowers cell viability or growth by half. As for `Cc1cc(NC(=O)c2cccc(S(=O)(=O)NC3CC(=O)N(C)C3)c2)ccc1F` (racemic) [Compound 179a], the EC50 in the data set on HBV [1] was found to be 0.38 µM; in the data set with HBV [2], 0.25 µM. The CC50 in the data set with HepG2 cells is > 25 µM.
As for `Cc1cc(NC(=O)c2cccc(S(=O)(=O)NC3CC(=O)N(C)C3)c2)ccc1F` (racemic) [Compound 179b], the EC50 in the data set on HBV [1] was 1.11 µM; in the data set on HBV [2], 1.84 µM. Also, the CC50 in the data set on HepG2 cells is > 25 µM.
The corresponding values for `Cc1cc(NC(=O)c2cccc(S(=O)(=O)NC3Cc4ccccc4C3O)c2)ccc1F` (single isomer, unassigned) [Compound 141b, N-(4-fluoro-3-methyl-phenyl)-3-[[(1R,2S)-1-hydroxyindan-2-yl]sulfamoyl]benzamide or N-(4-fluoro-3-methyl-phenyl)-3-[[(1S,2R)-1-hydroxyindan-2-yl]sulfamoyl]benzamide] are 0.27 µM, 0.23 µM and > 25 µM.
The matching figures for `Cc1cc(NC(=O)c2cccc(S(=O)(=O)NC3Cc4ccccc4C3O)c2)ccc1F` (single isomer, unassigned) [Compound 141c, N-(4-fluoro-3-methyl-phenyl)-3-[[(1S,2S)-1-hydroxyindan-2-yl]-sulfamoyl]benzamide or N-(4-fluoro-3-methyl-phenyl)-3-[[(1R,2R)-1-hydroxyindan-2-yl]sulfamoyl]benzamide]: 0.17 µM, 0.29 µM and > 25 µM.
The corresponding values for `Cc1cc(NC(=O)c2cccc(S(=O)(=O)NC3Cc4ccccc4C3O)c2)ccc1F` (single isomer, unassigned) [Compound 141d, N-(4-fluoro-3-methyl-phenyl)-3-[[(1R,2S)-1-hydroxyindan-2-yl]sulfamoyl]benzamide or N-(4-fluoro-3-methyl-phenyl)-3-[[(1S,2R)-1-hydroxyindan-2-yl]sulfamoyl]benzamide] are 0.56 µM, 1.14 µM and > 25 µM.
Regarding `Cc1cc(NC(=O)c2cccc(S(=O)(=O)NC3CCC(O)C3)c2)ccc1F` (single isomer, unassigned) [Compound 145b, N-(4-fluoro-3-methyl-phenyl)-3-[[(1R,3S)-3-hydroxycyclopentyl]sulfamoyl]benzamide or N-(4-fluoro-3-methyl-phenyl)-3-[[(1S,3R)-3-hydroxycyclopentyl]sulfamoyl]benzamide], the values for the EC50 with HBV [1] and in the data set on HBV [2] were 0.44 µM and 0.58 µM, respectively. Further, in the data set on HepG2 cells, the CC50 is > 25 µM.
Regarding `Cc1cc(NC(=O)c2cccc(S(=O)(=O)NC3CCC(O)C3)c2)ccc1F` (single isomer, unassigned) [Compound 145c, N-(4-fluoro-3-methyl-phenyl)-3-[[(1S,3S)-3-hydroxycyclopentyl]-sulfamoyl]benzamide or N-(4-fluoro-3-methyl-phenyl)-3-[[(1R,3R)-3-hydroxycyclopentyl]sulfamoyl]benzamide], the EC50 with HBV [1] and in the data set with HBV [2] was 0.34 µM each time. In the data set with HepG2 cells, the CC50 is > 25 µM.
On to `Cc1cc(NC(=O)c2cccc(S(=O)(=O)NC3CCC(O)C3)c2)ccc1F` (single isomer, unassigned) [Compound 145d, N-(4-fluoro-3-methyl-phenyl)-3-[[(1S,3S)-3-hydroxycyclopentyl]-sulfamoyl]benzamide or N-(4-fluoro-3-methyl-phenyl)-3-[[(1R,3R)-3-hydroxycyclopentyl]sulfamoyl]benzamide], for which the EC50 in the data set with HBV [1] turned out to be 0.4 µM; with HBV [2] it was 0.64 µM. The CC50 in the data set with HepG2 cells was > 25 µM.
On to `O=C(Nc1ccc(F)cc1)c1cccc(S(=O)(=O)NC2CCOCC2)c1` [Compound 1], for which the results for the half-maximal effective concentration (EC50) in the data set with HBV [1] (setting [4]) and in the data set on HBV [2] (setting [5]) were 0.93 µM and 1.67 µM, respectively. Also, the CC50 in the data set with HepG2 cells is > 100 µM.
The matching figures for `O=C(Nc1ccc(F)cc1)c1cccc(S(=O)(=O)NC2CCCC2)c1` [Compound 2]: 0.47 µM, 0.56 µM and 32.7 µM.
The corresponding values for `O=C(Nc1ccc(F)cc1)c1cccc(S(=O)(=O)NC2COC2)c1` [Compound 3] are 2.1 µM, 3.05 µM and > 100 µM.
On to `O=C(Nc1ccc(F)cc1)c1cccc(S(=O)(=O)NC2CCC2)c1` [Compound 5], for which the EC50 was 0.83 µM in the data set with HBV [1] (setting [4]) and 0.9 µM in the data set on HBV [2] (setting [5]). Moreover, in the data set with HepG2 cells, the CC50 is 57.7 µM.
In the case of `O=C(Nc1ccc(F)cc1)c1cccc(S(=O)(=O)NC2CCCCC2)c1` [Compound 6], the concentration giving a half-maximal response (EC50) in the data set with HBV [2] (setting [5]) was 0.58 µM. The CC50 in the data set with HepG2 cells was > 25 µM.
As to `O=C(Nc1ccc(F)cc1)c1cccc(S(=O)(=O)N[C@@H]2CCOC2)c1` [Compound 8], the 50% effective concentration (EC50) with HBV [1] (setting [4]) stood at 1.18 µM; in the data set with HBV [2] (setting [5]), 2.03 µM. Further, the CC50 in the data set with HepG2 cells was > 100 µM.
Take `O=C(Nc1ccc(F)cc1)c1cccc(S(=O)(=O)N[C@H]2CCOC2)c1` [Compound 9]: the EC50 in the data set on HBV [1] (setting [4]) was found to be 0.54 µM; in the data set with HBV [2] (setting [5]) it was 1.36 µM. For the same molecule, the CC50 in the data set on HepG2 cells is > 100 µM.
Regarding `CCC(CC)NS(=O)(=O)c1cccc(C(=O)Nc2ccc(F)cc2)c1` [Compound 10], the EC50 worked out at 0.75 µM in the data set on HBV [1] (setting [4]) and 3.63 µM in the data set on HBV [2] (setting [5]). Besides, the cytotoxic concentration (CC50) in the data set on HepG2 cells was determined as 40.3 µM.
The corresponding values for `CC(C)(C)NS(=O)(=O)c1cccc(C(=O)Nc2ccc(F)cc2)c1` [Compound 28] are 1.24 µM, 2.28 µM and 52.5 µM.
For `O=C(Nc1ccc(F)cc1)c1cccc(S(=O)(=O)N2CCCCC2)c1` [Compound 35], the EC50 in the data set with HBV [1] (setting [4]) stood at 4.5 µM; in the data set with HBV [2] (setting [5]), 2.7 µM. Besides, the 50% cytotoxic concentration (CC50) in the data set on HepG2 cells was found to be 70.4 µM.
On to `CN(C)S(=O)(=O)c1cccc(C(=O)Nc2ccc(F)cc2)c1` [Compound 37], for which the values for the EC50 in the data set on HBV [1] (setting [4]) and in the data set on HBV [2] (setting [5]) were 5.02 µM and 2.99 µM, respectively. Moreover, the CC50 in the data set on HepG2 cells was > 100 µM.
As to `CC(=O)N1CCC(NS(=O)(=O)c2cccc(C(=O)Nc3ccc(F)cc3)c2)CC1` [Compound 39], the EC50 was found to be 6.77 µM with HBV [1] (setting [4]) and 4.68 µM in the data set with HBV [2] (setting [5]). Further, the half-maximal cytotoxic concentration (CC50) in the data set on HepG2 cells was > 100 µM.
The matching figures for `CC(=O)N1CCN(S(=O)(=O)c2cccc(C(=O)Nc3ccc(F)cc3)c2)CC1` [Compound 40]: 7.1 µM, 6.29 µM and > 100 µM.
Consider `O=C(Nc1ccc(F)cc1)c1cccc(S(=O)(=O)N2CCOCC2)c1` [Compound 41], for which the EC50 was 8.49 µM in the data set with HBV [1] (setting [4]) and 11 µM with HBV [2] (setting [5]). In the data set with HepG2 cells, the CC50 was > 100 µM.
The corresponding values for `CN1CCN(S(=O)(=O)c2cccc(C(=O)Nc3ccc(F)cc3)c2)CC1` [Compound 44] are 26.5 µM, 11.1 µM and > 100 µM.
With `CN1CCC(NS(=O)(=O)c2cccc(C(=O)Nc3ccc(F)cc3)c2)CC1` [Compound 45], the values for the EC50 with HBV [1] (setting [4]) and in the data set with HBV [2] (setting [5]) were 59.3 µM and 16 µM, respectively. For the same molecule, in the data set on HepG2 cells, the half-maximal cytotoxic concentration (CC50) was > 100 µM.
`CN(C1CCCC1)S(=O)(=O)c1cccc(C(=O)Nc2ccc(F)cc2)c1` [Compound 46]: the EC50 was found to be 2.61 µM with HBV [1] (setting [4]) and 11.1 µM in the data set on HBV [2] (setting [5]). Moreover, in the data set on HepG2 cells, the CC50 came out at 23.8 µM.
`CC(C)NS(=O)(=O)c1cccc(C(=O)Nc2ccc(F)cc2)c1` [Compound 47]: the half-maximal effective concentration (EC50) amounted to 0.74 µM with HBV [1] (setting [4]) and 0.96 µM in the data set with HBV [2] (setting [5]). In the data set with HepG2 cells, the CC50 was 57.5 µM.
The corresponding values for `O=C(Nc1cccc(F)c1)c1cccc(S(=O)(=O)NC2CCCC2)c1` [Compound 77] are 0.27 µM, 0.43 µM and > 25 µM.
Turning to `COc1cc(NC(=O)c2cccc(S(=O)(=O)N[C@H]3CCOC3)c2)ccc1F` [Compound 103], the EC50 stood at 2.33 µM in the data set on HBV [1] (setting [4]) and 2.66 µM in the data set with HBV [2] (setting [5]). The CC50 with HepG2 cells was > 25 µM.
The corresponding values for `Cc1c(F)ccc(NC(=O)c2cccc(S(=O)(=O)N[C@H]3CCOC3)c2)c1F` [Compound 104] are 0.29 µM, 0.78 µM and > 25 µM.
The corresponding values for `Cc1cc(NC(=O)c2cccc(S(=O)(=O)N[C@H]3CCOC3)c2)c(F)cc1F` [Compound 106] are 2.22 µM, 3.3 µM and > 25 µM.
As to `Cc1cc(NC(=O)c2cc(S(=O)(=O)N[C@H]3CCOC3)ccc2F)ccc1F` [Compound 236], the results for the EC50 with HBV [1] (setting [4]) and in the data set with HBV [2] (setting [5]) were 0.48 µM and 1.58 µM, respectively. Moreover, the CC50 at 4 days in data set [3] is > 25 µM.
The matching figures for `Cc1cc(NC(=O)c2cc(S(=O)(=O)N[C@H]3CCOC3)ccc2Br)ccc1F` [Compound 237]: 0.43 µM, 0.13 µM and > 25 µM.
Regarding `Cc1ccc(S(=O)(=O)NC2(C)COC2)cc1C(=O)Nc1ccc(F)c(C(F)(F)F)c1` [Compound 238], the concentration giving a half-maximal response (EC50) with HBV [1] (setting [4]) is 0.61 µM; with HBV [2] (setting [5]), 0.5 µM. Further, the CC50 at 4 days in data set [3] is > 25 µM.
The corresponding values for `Cc1cc(NC(=O)c2ccc(F)c(S(=O)(=O)N[C@H]3CCOC3)c2)ccc1F` [Compound 239] are 0.48 µM, 0.53 µM and > 25 µM.
On to `Cc1cc(NC(=O)c2cc(F)cc(S(=O)(=O)NC(C)C)c2)ccc1F` [Compound 240], for which the EC50 in the data set with HBV [1] (setting [4]) stood at 0.4 µM; in the data set with HBV [2] (setting [5]), 2.86 µM. In data set [3], the 50% cytotoxic concentration (CC50) at 4 days is > 25 µM.
The corresponding values for `Cc1cc(NC(=O)c2cc(F)cc(S(=O)(=O)N[C@H]3CCOC3)c2)ccc1F` [Compound 241] are 0.38 µM, 1.79 µM and > 25 µM.
The corresponding values for `Cc1cc(NC(=O)c2cc(S(=O)(=O)N[C@H]3CCOC3)ccc2C(F)(F)F)ccc1F` [Compound 242] are 1.91 µM, 1.8 µM and > 25 µM.
